In ChEMBL document CHEMBL5338809, “Fragment-Based Discovery of Azocyclic Alkyl Naphthalenesulfonamides as Keap1-Nrf2 Inhibitors for Acute Lung Injury Treatment” (J Med Chem, 2023):
Calls of active or inactive are those of the source. No cut-off for these calls is given here.

Tests used:
[1] = Cytotoxicity against mouse peritoneal macrophages assessed as reduction in cell viability incubated for 24 hrs by Cell titer-blue assay; format: toxicity, cell-based, Peritoneal macrophage
Peritoneal macrophage [2] = test: Antiinflammatory activity in mouse peritoneal macrophages assessed as reduction in LPS-induced IL6 level at 10 uM incubated for 4 hrs by ELISA method; format: functional, cell-based
Peritoneal macrophage [3] = test: Antiinflammatory activity in mouse peritoneal macrophages assessed as fold reduction in LPS-induced TNFalpha level at 10 uM incubated for 4 hrs by ELISA method; format: functional
[4] = biological target: Keap1/Nrf2 (Homo sapiens) (UniProt Q16236+Q14145); test: Binding affinity to human Keap1-Nrf2 protein-protein interaction assessed as dissociation constant (Kd2) incubated for 60 mins by fluorescent polarization assay
Chain of Keap1/Nrf2 (Homo sapiens) (Q14145 whole entry, looked up): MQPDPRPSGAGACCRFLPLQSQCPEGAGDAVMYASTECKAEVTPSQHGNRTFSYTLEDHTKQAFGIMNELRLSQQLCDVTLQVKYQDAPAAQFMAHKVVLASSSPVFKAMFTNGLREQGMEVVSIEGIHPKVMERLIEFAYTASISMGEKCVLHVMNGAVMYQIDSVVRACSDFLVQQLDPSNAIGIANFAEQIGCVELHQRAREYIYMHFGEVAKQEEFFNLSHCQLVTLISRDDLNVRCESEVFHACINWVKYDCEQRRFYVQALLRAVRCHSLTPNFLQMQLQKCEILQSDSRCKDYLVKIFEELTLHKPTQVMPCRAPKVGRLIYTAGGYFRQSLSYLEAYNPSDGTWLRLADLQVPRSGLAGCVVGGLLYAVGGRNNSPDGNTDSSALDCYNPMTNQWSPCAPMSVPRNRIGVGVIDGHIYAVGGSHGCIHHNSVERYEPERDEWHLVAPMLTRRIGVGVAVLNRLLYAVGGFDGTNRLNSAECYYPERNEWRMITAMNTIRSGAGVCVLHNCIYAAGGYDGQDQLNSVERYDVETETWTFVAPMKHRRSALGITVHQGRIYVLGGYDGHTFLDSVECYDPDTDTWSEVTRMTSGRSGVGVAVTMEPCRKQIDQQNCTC
Chain of Keap1/Nrf2 (Homo sapiens) (Q16236 whole entry, looked up): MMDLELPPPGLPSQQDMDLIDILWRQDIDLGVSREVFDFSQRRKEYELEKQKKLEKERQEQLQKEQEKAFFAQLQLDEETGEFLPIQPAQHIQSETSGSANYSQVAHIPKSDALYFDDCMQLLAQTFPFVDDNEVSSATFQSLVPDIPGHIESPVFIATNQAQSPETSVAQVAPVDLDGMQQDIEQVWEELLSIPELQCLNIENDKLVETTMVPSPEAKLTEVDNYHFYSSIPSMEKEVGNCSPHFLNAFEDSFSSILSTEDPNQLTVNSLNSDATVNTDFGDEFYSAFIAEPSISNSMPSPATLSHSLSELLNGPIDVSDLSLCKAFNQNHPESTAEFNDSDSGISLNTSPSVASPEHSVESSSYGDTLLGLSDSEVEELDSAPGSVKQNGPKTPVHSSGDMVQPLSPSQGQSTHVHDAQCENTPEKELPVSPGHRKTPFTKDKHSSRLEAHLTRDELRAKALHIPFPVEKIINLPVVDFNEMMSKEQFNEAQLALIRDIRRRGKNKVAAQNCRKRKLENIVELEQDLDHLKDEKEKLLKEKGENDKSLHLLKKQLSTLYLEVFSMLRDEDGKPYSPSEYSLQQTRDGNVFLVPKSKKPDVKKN

[5] = Aqueous solubility of the compound in PBS at pH 7 at 2 mg incubated for 24 hrs by HPLC-UV analysis; format: physicochemical
[6] = Aqueous solubility of the compound in PBS at pH 2 at 2 mg incubated for 24 hrs by HPLC-UV analysis; format: physicochemical
[7] = Aqueous solubility of the compound in PBS at pH 7.4 at 2 mg incubated for 24 hrs by HPLC-UV analysis; format: physicochemical

| SMILES | CC50 at 24 h [1] [µM] | Activity (Peritoneal macrophage [2]) | fold change (FC) (Peritoneal macrophage [3]) | K [4] [nM] | solubility at 24 h [5] [µg/mL] | solubility at 24 h [6] [µg/mL] | solubility at 24 h [7] [µg/mL] |
| --- | --- | --- | --- | --- | --- | --- | --- |
| COc1ccc(S(=O)(=O)N(CC(N)=O)c2ccc(N(CC(N)=O)S(=O)(=O)c3ccc(NC(=O)[C@H]4CCNC4)cc3)c3ccccc23)cc1 | > 100 | Active | <=0.5 | 250 | – | – | – |
| COc1ccc(S(=O)(=O)N(CC(N)=O)c2ccc(N(CC(N)=O)S(=O)(=O)c3ccc(NC(=O)CN)cc3)c3ccccc23)cc1 | > 100 | – | <=0.5 | 250 | – | – | – |
| COCC(=O)Nc1ccc(S(=O)(=O)N(CC(N)=O)c2ccc(N(CC(N)=O)S(=O)(=O)c3ccc(OC)cc3)c3ccccc23)cc1 | > 100 | – | <=0.5 | 550 | – | – | – |
| COc1ccc(S(=O)(=O)N(CC(N)=O)c2ccc(N(CC(N)=O)S(=O)(=O)c3ccc(NC(=O)[C@H]4CCN4)cc3)c3ccccc23)cc1.O=C(O)CCC(=O)O | – | – | – | – | 60.6 | 145 | 65.6 |
| COc1ccc(S(=O)(=O)N(CC(N)=O)c2ccc(N(CC(N)=O)S(=O)(=O)c3ccc(NC(=O)CCCN)cc3)c3ccccc23)cc1 | > 100 | – | <=0.5 | 630 | – | – | – |
| COc1ccc(S(=O)(=O)N(CC(N)=O)c2ccc(N(CC(N)=O)S(=O)(=O)c3ccc(NC(=O)[C@H](C)N)cc3)c3ccccc23)cc1 | > 100 | Active | <=0.5 | 240 | – | – | – |
| COc1ccc(S(=O)(=O)N(CC(N)=O)c2ccc(N(CC(N)=O)S(=O)(=O)c3ccc(NC(=O)[C@@H]4CCCNC4)cc3)c3ccccc23)cc1 | > 100 | Active | <=0.5 | 270 | – | – | – |
| COc1ccc(S(=O)(=O)N(CC(N)=O)c2ccc(N(CC(N)=O)S(=O)(=O)c3ccc(NC(=O)[C@H]4CCN4)cc3)c3ccccc23)cc1.Cl | – | – | – | – | 484 | 1170 | 283 |
| COc1ccc(S(=O)(=O)N(CC(N)=O)c2ccc(N(CC(N)=O)S(=O)(=O)c3ccc(NC(=O)[C@H](N)C(C)C)cc3)c3ccccc23)cc1 | > 100 | – | <=0.5 | 810 | – | – | – |
| CC[C@@H](N)C(=O)Nc1ccc(S(=O)(=O)N(CC(N)=O)c2ccc(N(CC(N)=O)S(=O)(=O)c3ccc(OC)cc3)c3ccccc23)cc1 | > 100 | Active | <=0.5 | 320 | – | – | – |
| COc1ccc(S(=O)(=O)N(CC(N)=O)c2ccc(N(CC(N)=O)S(=O)(=O)c3ccc(NC(=O)[C@@H]4CCNC4)cc3)c3ccccc23)cc1 | > 100 | Active | <=0.5 | 240 | – | – | – |
| COc1ccc(S(=O)(=O)N(CC(N)=O)c2ccc(N(CC(N)=O)S(=O)(=O)c3ccc(NC(=O)[C@@H](C)N)cc3)c3ccccc23)cc1 | > 100 | Active | <=0.5 | 230 | – | – | – |
| COc1ccc(S(=O)(=O)N(CC(N)=O)c2ccc(N(CC(N)=O)S(=O)(=O)c3ccc(NC(=O)[C@@H](N)C(C)C)cc3)c3ccccc23)cc1 | > 100 | – | <=0.5 | 400 | – | – | – |
| Br.COc1ccc(S(=O)(=O)N(CC(N)=O)c2ccc(N(CC(N)=O)S(=O)(=O)c3ccc(NC(=O)[C@H]4CCN4)cc3)c3ccccc23)cc1 | – | – | – | – | 256 | 672 | 137 |
| COc1ccc(S(=O)(=O)N(CC(N)=O)c2ccc(N(CC(N)=O)S(=O)(=O)c3ccc(NC(=O)[C@H]4CCCNC4)cc3)c3ccccc23)cc1 | > 100 | – | <=0.5 | 400 | – | – | – |
| COc1ccc(S(=O)(=O)N(CC(N)=O)c2ccc(N(CC(N)=O)S(=O)(=O)c3ccc(NC(=O)[C@@H]4CCCN4)cc3)c3ccccc23)cc1 | > 100 | Active | <=0.5 | 270 | – | – | – |
| CCC[C@@H](N)C(=O)Nc1ccc(S(=O)(=O)N(CC(N)=O)c2ccc(N(CC(N)=O)S(=O)(=O)c3ccc(OC)cc3)c3ccccc23)cc1 | > 100 | – | <=0.5 | 590 | – | – | – |

| SMILES | CC50 at 24 h [1] [µM] | Activity (Peritoneal macrophage [2]) | fold change (FC) (Peritoneal macrophage [3]) | K [4] [nM] | solubility at 24 h [5] [µg/mL] | solubility at 24 h [6] [µg/mL] | solubility at 24 h [7] [µg/mL] |
| --- | --- | --- | --- | --- | --- | --- | --- |
| CC[C@H](N)C(=O)Nc1ccc(S(=O)(=O)N(CC(N)=O)c2ccc(N(CC(N)=O)S(=O)(=O)c3ccc(OC)cc3)c3ccccc23)cc1 | > 100 | – | <=0.5 | 530 | – | – | – |
| CC(=O)O.COc1ccc(S(=O)(=O)N(CC(N)=O)c2ccc(N(CC(N)=O)S(=O)(=O)c3ccc(NC(=O)[C@H]4CCN4)cc3)c3ccccc23)cc1 | – | – | – | – | 162 | 311 | 160 |
| COc1ccc(S(=O)(=O)N(CC(N)=O)c2ccc(N(CC(N)=O)S(=O)(=O)c3ccc(NC(=O)[C@H]4CCN4)cc3)c3ccccc23)cc1.O=C(O)C(F)(F)F | – | – | – | – | 292 | 423 | 275 |
| COc1ccc(S(=O)(=O)N(CC(N)=O)c2ccc(N(CC(N)=O)S(=O)(=O)c3ccc(NC(=O)C4CCCNC4)cc3)c3ccccc23)cc1 (centres undefined) | > 100 | – | <=0.5 | 430 | – | – | – |
| COc1ccc(S(=O)(=O)N(CC(N)=O)c2ccc(N(CC(N)=O)S(=O)(=O)c3ccc(NC(=O)C4CCN4)cc3)c3ccccc23)cc1 (centres undefined) | > 100 | Active | <=0.5 | 260 | – | – | – |
| COc1ccc(S(=O)(=O)N(CC(N)=O)c2ccc(N(CC(N)=O)S(=O)(=O)c3ccc(NC(=O)[C@H]4CCCN4)cc3)c3ccccc23)cc1 | > 100 | Active | <=0.5 | 300 | – | – | – |
| COc1ccc(S(=O)(=O)N(CC(N)=O)c2ccc(N(CC(N)=O)S(=O)(=O)c3ccc(NC(=O)CCCCN)cc3)c3ccccc23)cc1 | > 100 | – | <=0.5 | 270 | – | – | – |
| COc1ccc(S(=O)(=O)N(CC(N)=O)c2ccc(N(CC(N)=O)S(=O)(=O)c3ccc(NC(=O)CCN)cc3)c3ccccc23)cc1 | > 100 | – | <=0.5 | 440 | – | – | – |
| COC[C@@H](N)C(=O)Nc1ccc(S(=O)(=O)N(CC(N)=O)c2ccc(N(CC(N)=O)S(=O)(=O)c3ccc(OC)cc3)c3ccccc23)cc1 | > 100 | – | <=0.5 | 280 | – | – | – |
| COc1ccc(S(=O)(=O)N(CC(N)=O)c2ccc(N(CC(N)=O)S(=O)(=O)c3ccc(NC(=O)[C@@H](N)Cc4ccccc4)cc3)c3ccccc23)cc1 | > 100 | – | <=0.5 | 820 | – | – | – |
| COc1ccc(S(=O)(=O)N(CC(N)=O)c2ccc(N(CC(N)=O)S(=O)(=O)c3ccc(NC(=O)[C@@H]4CCN4)cc3)c3ccccc23)cc1 | > 100 | – | <=0.5 | 650 | – | – | – |
| COc1ccc(S(=O)(=O)N(CC(N)=O)c2ccc(N(CC(N)=O)S(=O)(=O)c3ccc(NC(=O)C4CCNC4)cc3)c3ccccc23)cc1 (centres undefined) | > 100 | Active | <=0.5 | 280 | – | – | – |
| COc1ccc(S(=O)(=O)N(CC(N)=O)c2ccc(N(CC(N)=O)S(=O)(=O)c3ccc(NC(=O)[C@@H](N)CSC)cc3)c3ccccc23)cc1 | > 100 | – | <=0.5 | 440 | – | – | – |
| CNCC(=O)Nc1ccc(S(=O)(=O)N(CC(N)=O)c2ccc(N(CC(N)=O)S(=O)(=O)c3ccc(OC)cc3)c3ccccc23)cc1 | > 100 | Active | <=0.5 | 250 | – | – | – |
| COc1ccc(S(=O)(=O)N(CC(N)=O)c2ccc(N(CC(N)=O)S(=O)(=O)c3ccc(NC(=O)[C@H](N)Cc4ccccc4)cc3)c3ccccc23)cc1 | > 100 | – | <=0.5 | 1170 | – | – | – |
| COC[C@H](N)C(=O)Nc1ccc(S(=O)(=O)N(CC(N)=O)c2ccc(N(CC(N)=O)S(=O)(=O)c3ccc(OC)cc3)c3ccccc23)cc1 | > 100 | Active | <=0.5 | 330 | – | – | – |
| COc1ccc(S(=O)(=O)N(CC(N)=O)c2ccc(N(CC(N)=O)S(=O)(=O)c3ccc(NC(=O)[C@H]4CCN4)cc3)c3ccccc23)cc1.O=C(O)/C=C\C(=O)O | – | – | – | – | 32.3 | 46.3 | 34.7 |
